Measurements taken from patent US7501397B2, “Helical peptidomimetics with enhanced activity” (The Brigham and Women's Hospital, Inc., priority 2004, dated 2009).
Non-standard residues stand in square brackets, D forms with d. Residues, ends and D or L forms follow the SMILES beside them. *: point of attachment. Boc = CC(C)(C)OC(=O)*; Aib = CC(C)(N)C(=O)O; Bn = c1ccc(C*)cc1

Assays:
[1] = biological target: γ-secretase (Homo sapiens, UniProt P49768); experiment: cell-free γ-secretase assay using detergent-solubilized membranes from HeLa cells and a recombinant APP-based substrate; format: biochemical; design: detergent-solubilized membranes from HeLa cells; endogenous in cells; host or cells: HeLa cells (detergent-solubilized membranes); details: for IC50: 50% inhibition of Aβ40 production, at least three independent experiments, read-out: Cell-free Assay IC50; for increase in potency over the reference L-decapeptide having SEQ ID NO:10: L-series, cell-free assay
Method: Compounds were tested in a γ-secretase assay using detergent-solubilized membranes from HeLa cells and a recombinant APP-based substrate (Table 2, 18). […] Moreover, the γ-secretase inhibition appears to show dependence on length.

[2] = system: Aβ production in Chinese hamster ovary (CHO) cells stably transfected with human APP; experiment: cell-based assay of total Aβ production in CHO cells stably transfected with human APP; details: CHO cells stably transfected with human APP; total Aβ; read-out: IC50 (concentration that reduced production of total Aβ by 50%)
Excerpt: Based on the helical model for the APP transmembrane domain, short peptides were designed to adopt a similar conformation that block γ-secretase activity. Judicious replacement of selected residues of short APP-derived peptides with 2-aminoisobutyric acid (Aib), a known helix-inducing amino acid (19, 20), provided peptides that, in principle, mimic the γ-secretase cleavage site on one face of the helix, with Aib residues on the other face. Aib-containing peptides were identified that inhibit Aβ production in APP-transfected cells with 50 percent inhibitory concentrations (IC50's) as low as 2 μM. […] The crystal structure of this compound has been determined, and the peptide is fully helical (19). In certain embodiments the compounds of the invention have structures that are based on the partial APP sequence Val-Gly-Gly-Val-Val-Ile-Ala-Thr-Val-Ile-Val-Ile (SEQ ID NO:12; see FIG. 1). Basing the structures of the compounds of the invention on the partial APP sequence could enhance in vivo specificity of the compounds.
The top set of peptidomimetics (SEQ ID NOs: 1-5) was designed considering the cleavage leading to Aβ42, and the bottom set (SEQ ID NOs: 6-10) was designed considering the cleavage site leading to Aβ40. IC50 is the concentration of compound that reduced production of total Aβ by 50% in a cell-based assay using Chinese hamster ovary (CHO) cells stably transfected with human APP.
Starting from the reference D-decapeptide having SEQ ID NO:10 (IC50=90 nM), the enantiomers of the helical peptide L-series were tested for inhibitory activity. […] This greater than 40-fold loss of activity compared to the cell-free assay may be due to the need to enter into and/or cross cell membranes or some susceptibility to metabolic degradation.

Molecule	IC50 [1]	increase in potency over the reference L-decapeptide having SEQ ID NO:10 [1]	IC50 [2]
CC[C@@H](C)[C@@H](NC(=O)[C@H](NC(=O)[C@H](NC(=O)C(C)(C)NC(=O)CNC(=O)[C@H](NC(=O)C(C)(C)NC(=O)OC(C)(C)C)C(C)C)C(C)C)C(C)C)C(=O)NC(C)(C)C(=O)N[C@@H](C(=O)N[C@@H](C(=O)NC(C)(C)C(=O)N[C@@H](C(=O)N[C@@H](C(=O)NC(C)(C)C(=O)OC)[C@H](C)CC)C(C)C)C(C)C)[C@H](C)OCc1ccccc1 [SEQ ID NO:19 D-peptide, Boc-Aib-Val-Gly-Aib-Val-Val-Ile-Aib-Thr(OBz)-Val-Aib-Val-Ile-Aib-OMe] (Boc-[Aib][dV]G[Aib][dV][dV][dI][Aib][dT](Bn)[dV][Aib][dV][dI][Aib]-OMe)	0.014 ± 0.01 µM	–	–
Boc-Ile-Ala-Thr(OBz)-Aib-Ile-Val-Aib-OMe [SEQ ID NO:2]	–	–	15 µM
Boc-Gly-Val-Aib-Ile-Ala-Thr(OBz)-Aib-Ile-Val-Aib-OMe [SEQ ID NO:5]	–	–	5 µM
Boc-Aib-Ile-Ala-Thr(OBz)-Aib-Ile-Val-Aib-OMe [SEQ ID NO:3]	–	–	10 µM
Boc-Aib-Val-Val-Ile-Aib-Thr(OBz)-Val-Aib-OMe [SEQ ID NO:8]	–	–	6 µM
CC[C@H](C)[C@H](NC(=O)[C@@H](NC(=O)[C@@H](NC(=O)C(C)(C)NC(=O)OC(C)(C)C)C(C)C)C(C)C)C(=O)NC(C)(C)C(=O)N[C@H](C(=O)N[C@H](C(=O)NC(C)(C)C(=O)N[C@H](C(=O)N[C@H](C(=O)NC(C)(C)C(=O)OC)[C@@H](C)CC)C(C)C)C(C)C)[C@@H](C)OCc1ccccc1 [SEQ ID NO:16 L-peptide, Boc-Aib-Val-Val-Ile-Aib-Thr(OBz)-Val-Aib-Val-Ile-Aib-OMe] (Boc-[Aib]VVI[Aib]T(Bn)V[Aib]VI[Aib]-OMe)	3.1 µM	–	–
CC[C@H](C)[C@H](NC(=O)[C@@H](NC(=O)[C@@H](NC(=O)C(C)(C)NC(=O)CNC(=O)[C@@H](NC(=O)OC(C)(C)C)C(C)C)C(C)C)C(C)C)C(=O)NC(C)(C)C(=O)N[C@H](C(=O)N[C@H](C(=O)NC(C)(C)C(=O)N[C@H](C(=O)N[C@H](C(=O)NC(C)(C)C(=O)OC)[C@@H](C)CC)C(C)C)C(C)C)[C@@H](C)OCc1ccccc1 [SEQ ID NO:18 L-peptide, Boc-Val-Gly-Aib-Val-Val-Ile-Aib-Thr(OBz)-Val-Aib-Val-Ile-Aib-OMe] (Boc-VG[Aib]VVI[Aib]T(Bn)V[Aib]VI[Aib]-OMe)	0.78 µM	~40 fold	–
CC[C@@H](C)[C@@H](NC(=O)[C@H](NC(=O)[C@H](NC(=O)OC(C)(C)C)C(C)C)C(C)C)C(=O)NC(C)(C)C(=O)N[C@@H](C(=O)N[C@@H](C(=O)NC(C)(C)C(=O)N[C@@H](C(=O)N[C@@H](C(=O)NC(C)(C)C(=O)OC)[C@H](C)CC)C(C)C)C(C)C)[C@H](C)OCc1ccccc1 [SEQ ID NO:15 D-peptide, Boc-Val-Val-Ile-Aib-Thr(OBz)-Val-Aib-Val-Ile-Aib-OMe] (Boc-[dV][dV][dI][Aib][dT](Bn)[dV][Aib][dV][dI][Aib]-OMe)	0.025 ± 0.003 µM	–	–
CC[C@@H](C)[C@@H](NC(=O)[C@H](NC(=O)[C@H](NC(=O)C(C)(C)NC(=O)OC(C)(C)C)C(C)C)C(C)C)C(=O)NC(C)(C)C(=O)N[C@@H](C(=O)N[C@@H](C(=O)NC(C)(C)C(=O)N[C@@H](C(=O)N[C@@H](C(=O)NC(C)(C)C(=O)OC)[C@H](C)CC)C(C)C)C(C)C)[C@H](C)OCc1ccccc1 [SEQ ID NO:16 D-peptide, Boc-Aib-Val-Val-Ile-Aib-Thr(OBz)-Val-Aib-Val-Ile-Aib-OMe] (Boc-[Aib][dV][dV][dI][Aib][dT](Bn)[dV][Aib][dV][dI][Aib]-OMe)	0.028 ± 0.019 µM	–	–

The next lines start with results.

IC50 [1]	increase in potency over the reference L-decapeptide having SEQ ID NO:10 [1]	Molecule	IC50 [2]
0.026 ± 0.021 µM	–	CC[C@@H](C)[C@@H](NC(=O)[C@H](NC(=O)[C@H](NC(=O)C(C)(C)NC(=O)CNC(=O)[C@H](NC(=O)C(C)(C)NC(=O)[C@@H](CC(C)C)NC(=O)CNC(=O)OC(C)(C)C)C(C)C)C(C)C)C(C)C)C(=O)NC(C)(C)C(=O)N[C@@H](C(=O)N[C@@H](C(=O)NC(C)(C)C(=O)N[C@@H](C(=O)N[C@@H](C(=O)NC(C)(C)C(=O)OC)[C@H](C)CC)C(C)C)C(C)C)[C@H](C)OCc1ccccc1 [SEQ ID NO:21 D-peptide, Boc-Gly-Leu-Aib-Val-Gly-Aib-Val-Val-Ile-Aib-Thr(OBz)-Val-Aib-Val-Ile-Aib-OMe] (Boc-G[dL][Aib][dV]G[Aib][dV][dV][dI][Aib][dT](Bn)[dV][Aib][dV][dI][Aib]-OMe)	–
10 µM	–	CC[C@H](C)[C@H](NC(=O)[C@@H](NC(=O)[C@@H](NC(=O)OC(C)(C)C)C(C)C)C(C)C)C(=O)NC(C)(C)C(=O)N[C@H](C(=O)N[C@H](C(=O)NC(C)(C)C(=O)N[C@H](C(=O)N[C@H](C(=O)NC(C)(C)C(=O)OC)[C@@H](C)CC)C(C)C)C(C)C)[C@@H](C)OCc1ccccc1 [SEQ ID NO:15 L-peptide, Boc-Val-Val-Ile-Aib-Thr(OBz)-Val-Aib-Val-Ile-Aib-OMe] (Boc-VVI[Aib]T(Bn)V[Aib]VI[Aib]-OMe)	–
4.7 µM	–	CC[C@H](C)[C@H](NC(=O)[C@@H](NC(=O)[C@@H](NC(=O)C(C)(C)NC(=O)CNC(=O)[C@@H](NC(=O)C(C)(C)NC(=O)[C@H](CC(C)C)NC(=O)OC(C)(C)C)C(C)C)C(C)C)C(C)C)C(=O)NC(C)(C)C(=O)N[C@H](C(=O)N[C@H](C(=O)NC(C)(C)C(=O)N[C@H](C(=O)N[C@H](C(=O)NC(C)(C)C(=O)OC)[C@@H](C)CC)C(C)C)C(C)C)[C@@H](C)OCc1ccccc1 [SEQ ID NO:20 L-peptide, Boc-Leu-Aib-Val-Gly-Aib-Val-Val-Ile-Aib-Thr(OBz)-Val-Aib-Val-Ile-Aib-OMe] (Boc-L[Aib]VG[Aib]VVI[Aib]T(Bn)V[Aib]VI[Aib]-OMe)	–
0.016 ± 0.007 µM	–	CC[C@@H](C)[C@@H](NC(=O)[C@H](NC(=O)[C@H](NC(=O)C(C)(C)NC(=O)CNC(=O)[C@H](NC(=O)C(C)(C)NC(=O)[C@@H](CC(C)C)NC(=O)OC(C)(C)C)C(C)C)C(C)C)C(C)C)C(=O)NC(C)(C)C(=O)N[C@@H](C(=O)N[C@@H](C(=O)NC(C)(C)C(=O)N[C@@H](C(=O)N[C@@H](C(=O)NC(C)(C)C(=O)OC)[C@H](C)CC)C(C)C)C(C)C)[C@H](C)OCc1ccccc1 [SEQ ID NO:20 D-peptide, Boc-Leu-Aib-Val-Gly-Aib-Val-Val-Ile-Aib-Thr(OBz)-Val-Aib-Val-Ile-Aib-OMe] (Boc-[dL][Aib][dV]G[Aib][dV][dV][dI][Aib][dT](Bn)[dV][Aib][dV][dI][Aib]-OMe)	–
0.91 ± 0.17 µM	–	CC[C@H](C)[C@H](NC(=O)[C@@H](NC(=O)[C@@H](NC(=O)C(C)(C)NC(=O)CNC(=O)[C@@H](NC(=O)C(C)(C)NC(=O)OC(C)(C)C)C(C)C)C(C)C)C(C)C)C(=O)NC(C)(C)C(=O)N[C@H](C(=O)N[C@H](C(=O)NC(C)(C)C(=O)N[C@H](C(=O)N[C@H](C(=O)NC(C)(C)C(=O)OC)[C@@H](C)CC)C(C)C)C(C)C)[C@@H](C)OCc1ccccc1 [SEQ ID NO:19 L-peptide, Boc-Aib-Val-Gly-Aib-Val-Val-Ile-Aib-Thr(OBz)-Val-Aib-Val-Ile-Aib-OMe] (Boc-[Aib]VG[Aib]VVI[Aib]T(Bn)V[Aib]VI[Aib]-OMe)	–
0.012 ± 0.004 µM	–	CC[C@@H](C)[C@@H](NC(=O)[C@H](NC(=O)[C@H](NC(=O)C(C)(C)NC(=O)CNC(=O)OC(C)(C)C)C(C)C)C(C)C)C(=O)NC(C)(C)C(=O)N[C@@H](C(=O)N[C@@H](C(=O)NC(C)(C)C(=O)N[C@@H](C(=O)N[C@@H](C(=O)NC(C)(C)C(=O)OC)[C@H](C)CC)C(C)C)C(C)C)[C@H](C)OCc1ccccc1 [SEQ ID NO:17 D-peptide, Boc-Gly-Aib-Val-Val-Ile-Aib-Thr(OBz)-Val-Aib-Val-Ile-Aib-OMe] (Boc-G[Aib][dV][dV][dI][Aib][dT](Bn)[dV][Aib][dV][dI][Aib]-OMe)	–
11 µM	–	CC[C@H](C)[C@H](NC(=O)[C@@H](NC(=O)[C@@H](NC(=O)C(C)(C)NC(=O)CNC(=O)[C@@H](NC(=O)C(C)(C)NC(=O)[C@H](CC(C)C)NC(=O)CNC(=O)OC(C)(C)C)C(C)C)C(C)C)C(C)C)C(=O)NC(C)(C)C(=O)N[C@H](C(=O)N[C@H](C(=O)NC(C)(C)C(=O)N[C@H](C(=O)N[C@H](C(=O)NC(C)(C)C(=O)OC)[C@@H](C)CC)C(C)C)C(C)C)[C@@H](C)OCc1ccccc1 [SEQ ID NO:21 L-peptide, Boc-Gly-Leu-Aib-Val-Gly-Aib-Val-Val-Ile-Aib-Thr(OBz)-Val-Aib-Val-Ile-Aib-OMe] (Boc-GL[Aib]VG[Aib]VVI[Aib]T(Bn)V[Aib]VI[Aib]-OMe)	–
0.36 µM	~100 fold	CC[C@H](C)[C@H](NC(=O)[C@@H](NC(=O)[C@@H](NC(=O)C(C)(C)NC(=O)CNC(=O)OC(C)(C)C)C(C)C)C(C)C)C(=O)NC(C)(C)C(=O)N[C@H](C(=O)N[C@H](C(=O)NC(C)(C)C(=O)N[C@H](C(=O)N[C@H](C(=O)NC(C)(C)C(=O)OC)[C@@H](C)CC)C(C)C)C(C)C)[C@@H](C)OCc1ccccc1 [SEQ ID NO:17 L-peptide, Boc-Gly-Aib-Val-Val-Ile-Aib-Thr(OBz)-Val-Aib-Val-Ile-Aib-OMe] (Boc-G[Aib]VVI[Aib]T(Bn)V[Aib]VI[Aib]-OMe)	–
